Test results reported in patent US20150086655A1, “Morinda Citrifolia Juice Formulations Comprising Iridoids” (priority 2013, published 2015).

Columns and labels:
[1] = system: E. coli PQ37; type: cell-based; details: 250 ug mL^−1 iridoid plus 1.25 ug mL^−1 4NQO
Procedure: The SOS-chromotest in E. coli PQ37 was used to determine the potential for iridoids in noni fruit from French Polynesia to prevent primary DNA damage. E. coli PQ37 was incubated at 37° C. in the presence of deacetylasperulosidic acid and asperulosidic acid at a concentration of 250 ug mL^−1 in a 96-well plate. Replicate samples were evaluated.

[2] = Thermal stability of DAA under pasteurization conditions (HPLC); type: physicochemical; details: 90° C. at pH 3.3 for one minute
Procedure: Tahitian noni fruit puree as used in this example is the mashed whole fruit, excluding seeds and pericarp. The fruits were originally collected from the Tahitian Islands. One gram of the puree was diluted with 5 mL of H2O-MeOH (1:1) and mixed thoroughly. The solution was then filtered through a nylon microfilter (0.45-μm pore size); the solution was collected into a 5 mL volumetric flask for HPLC analysis. Four batches of noni puree were analyzed in the experiments. Voucher specimens of the noni fruit puree are deposited in our lab. To test iridoid stability, a DAA solution of 0.5 mg/mL was prepared with MeOH. This solution was heated in a water-bath at 90° C. for 1 min, cooled to room temperature, and analyzed by HPLC.
Noni fruit juice is usually subjected to heat pasteurization during commercial processing. Pasteurization is usually employed in noni industry, i.e., heating up to 87.7° C. for several seconds. In this study, the stability of DAA was conducted. DAA was exposed to 90° C. at pH 3.3 for one minute to determine its thermal stability at acidic conditions.

[3] = system: E. coli PQ37; assay: Primary DNA damage test (SOS-chromotest); type: cell-based; details: all concentrations tested (7.81-1000 μg mL^−1)
Procedure: The SOS-chromotest in E. coli PQ37 was used to determine the potential for DAA and AA to induce primary DNA damage. This test was carried out according to the previously developed method (Fish et al., 1987). […] E. coli PQ37 was incubated in LB medium in a 96-well plate at 37° C. in the presence of DAA or AA for 2 hours. The DAA and AA concentrations tested were 7.81, 15.6, 31.2, 62.5, 125, 250, 500, and 1000 μg mL^−1. Samples were evaluated in triplicate. […] Induction factors less than two indicate an absence of genotoxic activity.

| SMILES | induction factors (mean±standard deviation) [1] | DAA content before and after heating (thermal stability) [2] | induction of SOS repair versus blank [3] |
| --- | --- | --- | --- |
| O=C(O)C1=CO[C@@H](O[C@@H]2O[C@H](CO)[C@@H](O)[C@H](O)[C@H]2O)[C@@H]2C(CO)=C[C@H](O)[C@H]12 [DAA, deacetylasperulosidic acid] | 0.98±0.02 | no difference in the DAA contents before and after heating | did not induce any SOS repair |
| CC(=O)OCC1=C[C@H](O)[C@@H]2C(C(=O)O)=CO[C@@H](O[C@@H]3O[C@H](CO)[C@@H](O)[C@H](O)[C@H]3O)[C@H]12 [AA, asperulosidic acid] | – | – | did not induce any SOS repair |
